Laboratory results published in article PMC12406204 (Journal of Medicinal Chemistry, 2025).

Experiments:
Assay type in all cases: cell-based
CB2R [1] = molecular target: T1, CB2R (Homo sapiens, UniProt P34972); assay: CB2R cAMP determination after forskolin stimulation in transfected HEK-293T cells; set-up: expressed in transfected cells; host or cells: HEK-293T, transient transfection (PEI); details: for Emax: HEK-293T, normalized to maximal efficacious concentration of CP 55,940, read-out: CB2R Emax AMPc (converted); for EC50: transfected HEK-293T cells, forskolin-stimulated cAMP, read-out: CB2R EC50 AMPc
T1 sequence (P34972 whole entry): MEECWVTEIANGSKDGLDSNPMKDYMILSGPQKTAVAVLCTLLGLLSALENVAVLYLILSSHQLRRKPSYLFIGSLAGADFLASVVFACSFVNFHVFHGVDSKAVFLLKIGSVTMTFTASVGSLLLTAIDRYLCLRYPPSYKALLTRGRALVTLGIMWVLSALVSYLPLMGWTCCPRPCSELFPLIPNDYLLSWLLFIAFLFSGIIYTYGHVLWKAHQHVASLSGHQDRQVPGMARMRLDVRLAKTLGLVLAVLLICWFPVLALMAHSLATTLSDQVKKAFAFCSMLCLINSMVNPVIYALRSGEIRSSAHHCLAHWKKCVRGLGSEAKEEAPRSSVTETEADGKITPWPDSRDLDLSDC
Protocol: (§1) Initially we tested their ability to modify CB2R-mediated cAMP accumulation, providing insights into their functional behavior as either agonists or antagonists (Table ). Moreover, the signaling profiles of selected ligands were investigated through their impact on β-arrestin recruitment and Mitogen-Activated Protein Kinase (MAPK) phosphorylation pathway, enabling a more comprehensive evaluation of their intracellular signaling profiles (Table ).
HEK-293T cells were grown in Dulbecco’s Modified Eagle’s Medium (DMEM) medium (Gibco, Paisley, Scotland, United Kingdom) supplemented with 2 mM L-glutamine, 100 U/mL penicillin/streptomycin, MEM Non-Essential Amino Acids Solution (1/100) and 5% (v/v) heat inactivated Fetal Bovine Serum (FBS) (Invitrogen, Paisley, Scotland, United Kingdom). Cells were maintained in a humid atmosphere of 5% CO2 at 37 °C. Cells were transiently transfected with the PEI (Polyethylenimine, Sigma, St. Louis, MO, United States) method as previously described and used for functional assays 48 h later.
Signaling experiments have been performed as previously described. Two hours before initiating the experiment, HEK-293T cell-culture medium was replaced by serum-starved DMEM medium. Then, cells were detached, resuspended in growing medium containing […] zardaverine (Tocris, Bristol, U.K.) and placed in 384-well microplates (2500 cells/well). Cells were pretreated (15 min) with cannabinoid compounds (1 nM to 100 μM) -or vehicle- before adding […] forskolin (Tocris, Bristol, U.K.) to induce cAMP accumulation. Readings were performed after 15 min incubation at 25 °C. Homogeneous Time Resolved Fluorescence (HTRF) energy transfer measures were performed using the Lance Ultra cAMP kit (PerkinElmer, Waltham, MA, United States). Fluorescence at 665 nm was analyzed in a PHERA star Flagship microplate reader equipped with an HTRF optical module (BMG Lab Technologies, Offenburg, Germany).

CB2R [2] = molecular target: T1, CB2R; assay: CB2R MAPK phosphorylation; set-up: expressed in transfected cells; host or cells: HEK-293T, transient transfection (PEI); details: for Emax: normalized to CP 55,940
Source text: as §1
(§2) JWH-133, a well-known nonbiased (balanced) agonist, was employed as the reference for comparing the signaling profiles of the tested compounds. An operational model analysis was applied to quantify the functional bias of each CB2R-selective agonist. This involved calculating the bias factor by comparing the signaling pathways: β-arrestin versus cAMP, MAPK versus cAMP, and β-arrestin versus MAPK.

CB2R [3] = molecular target: T1, CB2R; assay: Signaling bias quantification (relative activity model, JWH-133 reference); set-up: expressed in transfected cells; host or cells: HEK-293T, transient transfection (PEI); details: in parentheses
Source text: as §2

[4] = Cytotoxicity on THP1 monocytes and macrophages; details: human, 100 nM, basal and LPS-stimulated conditions, read-out: cell viability (cytotoxicity)
Source text: These findings collectively highlight the anti-inflammatory properties of the selected CB2R agonists. […] The cytokine modulation profiles observed (Figure ) support the hypothesis that these ligands promote a shift toward an anti-inflammatory immune response, reducing the detrimental effects of chronic inflammation. This makes them promising candidates for the development of new therapies addressing severe inflammatory conditions, such as systemic infections, sepsis, neuroinflammation, and certain types of cancer or scenarios where conventional anti-inflammatory treatments are insufficient. Moreover, the selective targeting of CB2R without activating CB1R ensures a favorable safety profile, minimizing the risk of psychoactive side effects, and positioning these ligands as promising candidates for neurodegenerative and oncological therapies. To ensure the safety and viability of our tested compounds, we evaluated their cytotoxic effects on monocytes and macrophages under the same conditions as those used for assessing anti-inflammatory activity (Figure ). Each compound was tested at a concentration of 100 nM.
Supplementary Figure S5. Cytotoxicity assessment of lead compounds (16i, 16j, 18e, 18f, 18o, and 18p) on THP1 monocytes and macrophages (n = 3). Cells were treated with each compound at 100 nM under both basal and LPS - stimulated conditions. The viability was compared to controls, including HU308 and SR144528. […]
cytotoxic effects, with cell viability remaining close to 100% across all conditions. Error bars represent standard deviation.
(1 picture or pasted object on this page, not shown here)

mouse primary neurons = assay: Viability of primary neuronal cultures, basal conditions (trypan blue); details: 100 nM, 24 h
Protocol: A mouse primary cell experiment was performed to examine the neuroprotective effects of CB2R agonists selected for in-depth study (16i, 16j, 18e, 18f, 18o, and 18p). First, to exclude any intrinsic toxicity of the selected candidates, their potential effects on primary cell cultures were assessed. […] This finding is particularly noteworthy, and not self-evident, given the significant neurotoxicity observed during our earlier study with structurally related, classical abused [CB1R/CB2R promiscuous] synthetic cannabinoids (SCRAs). For comparative purposes, Figure A also depicts cell viability data obtained for some abused SCRAs (Figure A, gray bars) under identical conditions.
To prepare primary neurons, brains from fetuses of pregnant CD1 mice were removed (gestational age: 19 days). Neurons were isolated as described in Hradsky et al. Briefly, after removal of the meninges, samples were dissected and digested with 0.25% trypsin (20 min at 37 °C). The effect of trypsin was stopped by adding an equal volume of culture medium (supplemented DMEM). A single-cell suspension was obtained by repeated pipetting followed by passage through a 100 μm-pore mesh. Pelleted (7 min, 200g) cells were resuspended in 2 mL of supplemented DMEM and seeded at a density of 3.5 × 10^5 cells/mL in 6-well plates. After 24 h, the medium was replaced by neurobasal medium supplemented with 2 mM L-glutamine, 100 U/mL penicillin/streptomycin and 2% (v/v) B27 medium (GIBCO, Waltham, MA, USA). Primary neurons were assayed after 14 days in culture. Using NeuN as a marker, the percentage of neurons in the culture was >90%.
Primary cultures of striatal neurons were treated for 24 h with selected SCRAs (100 nM). Afterward, cells were scrapped from the plate and resuspended in neurobasal medium supplemented with 2 mM L-glutamine, 100 U/mL penicillin/streptomycin and 2% (v/v) B27 (GIBCO). Trypan blue staining was performed mixing 1 part of 0.4% trypan blue and 1 part of cell suspension in a plastic tube. After ∼3 min of incubation at room temperature, 10 μL of the mixture were sampled in a Neubauer chamber and counted with a Countess II FL (Life Technologies, California, CA, USA). The unstained (viable) and stained (nonviable) cells were counted separately, and the percentage of viability was calculated as total number of viable cells/total number of cells × 100.

Compound	Emax (CB2R [1])	EC50 (CB2R [1])	EC50 (CB2R [2])	Emax (CB2R [2])	Preferred (biased) pathway MAPK – cAMP (CB2R [3])	Preferred (biased) pathway β-arrestin – MAPK (CB2R [3])	Preferred (biased) pathway β-arrestin – cAMP (CB2R [3])	viability at 0.1 µM [4]	primary cell survival (mouse primary neurons)
CCCCCn1nc(C(=O)N2CCCC[C@H]2C(=O)OC)c2ccccc21 [16i]	64%	0.03 ± 0.01 nM	0.38 ± 0.09 nM	88%	G protein	MAPK	G protein	~100%	did not affect primary cell survival
CCCCCn1nc(C(=O)N2CCCC[C@@H]2C(=O)OC)c2ccccc21 [16j]	53%	0.09 ± 0.01 nM	0.09 ± 0.003 nM	89%	No bias	MAPK	G protein	~100%	did not affect primary cell survival
NC(=O)[C@@H]1CCCCN1C(=O)c1cn(CC2CCCCC2)c2ccccc12 [18e]	82%	1701 ± 12 nM	0.09 ± 0.002 nM	74%	MAPK	MAPK	β-arrestin	~100%	did not affect primary cell survival
NC(=O)[C@H]1CCCCN1C(=O)c1cn(CC2CCCCC2)c2ccccc12 [18f]	55%	118 ± 4 nM	0.07 ± 0.007 nM	94%	MAPK	MAPK	β-arrestin	~100%	did not affect primary cell survival
NC(=O)[C@@H]1CCCCN1C(=O)c1nn(Cc2ccc(F)cc2)c2ccccc12 [18o]	60%	0.6 ± 0.09 nM	0.03 ± 0.003 nM	68%	MAPK	MAPK	G protein	~100%	did not affect primary cell survival
NC(=O)[C@H]1CCCCN1C(=O)c1nn(Cc2ccc(F)cc2)c2ccccc12 [18p]	58%	6.8 ± 0.3 nM	0.4 ± 0.02 nM	79%	MAPK	MAPK	G protein	~100%	did not affect primary cell survival
